Measurements reported in US10280198B2, “Therapeutic agents for reducing parathyroid hormone levels” (KAI PHARMACEUTICALS, INC., priority 2009, dated 2019).
Read-outs that look alike come from different tables or passages of the source.

How the values were obtained:
[1] = system: plasma histamine; conditions: rat
Method: For the in vivo evaluation of histamine release, compounds were dosed in isoflurane-anesthetized normal rats at 2 mg/kg by IV bolus (administered over less than one minute). Plasma histamine was measured 5 minutes after compound administration (Cayman histamine EIA #589651).

[2] = system: rat peritoneal mast cells; experiment: In vitro histamine induction in rat peritoneal mast cells; format: cell-based
Method in brief: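 Mast cells from peritoneal lavage of Sprague Dawley rats were incubated with compound at 10 μM for 15 min at 37 °C in HBSS + 25 mM HEPES pH 7.4. Supernatant histamine measured by EIA; response expressed as fold change versus pre-incubation levels.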

[3] = molecular target: T1, human calcium-sensing receptor (CaSR) (Homo sapiens, UniProt P41180); experiment: In vitro cell assay in HEK-293 expressing the human calcium-sensing receptor (IP1 production); format: cell-based
T1 construct: expressed in transfected cells; host or cells: HEK 293T cells, transiently transfected (lipofectamine 2000); in some cases HEK293 cells stably transfected
T1 sequence (P41180 20-1078): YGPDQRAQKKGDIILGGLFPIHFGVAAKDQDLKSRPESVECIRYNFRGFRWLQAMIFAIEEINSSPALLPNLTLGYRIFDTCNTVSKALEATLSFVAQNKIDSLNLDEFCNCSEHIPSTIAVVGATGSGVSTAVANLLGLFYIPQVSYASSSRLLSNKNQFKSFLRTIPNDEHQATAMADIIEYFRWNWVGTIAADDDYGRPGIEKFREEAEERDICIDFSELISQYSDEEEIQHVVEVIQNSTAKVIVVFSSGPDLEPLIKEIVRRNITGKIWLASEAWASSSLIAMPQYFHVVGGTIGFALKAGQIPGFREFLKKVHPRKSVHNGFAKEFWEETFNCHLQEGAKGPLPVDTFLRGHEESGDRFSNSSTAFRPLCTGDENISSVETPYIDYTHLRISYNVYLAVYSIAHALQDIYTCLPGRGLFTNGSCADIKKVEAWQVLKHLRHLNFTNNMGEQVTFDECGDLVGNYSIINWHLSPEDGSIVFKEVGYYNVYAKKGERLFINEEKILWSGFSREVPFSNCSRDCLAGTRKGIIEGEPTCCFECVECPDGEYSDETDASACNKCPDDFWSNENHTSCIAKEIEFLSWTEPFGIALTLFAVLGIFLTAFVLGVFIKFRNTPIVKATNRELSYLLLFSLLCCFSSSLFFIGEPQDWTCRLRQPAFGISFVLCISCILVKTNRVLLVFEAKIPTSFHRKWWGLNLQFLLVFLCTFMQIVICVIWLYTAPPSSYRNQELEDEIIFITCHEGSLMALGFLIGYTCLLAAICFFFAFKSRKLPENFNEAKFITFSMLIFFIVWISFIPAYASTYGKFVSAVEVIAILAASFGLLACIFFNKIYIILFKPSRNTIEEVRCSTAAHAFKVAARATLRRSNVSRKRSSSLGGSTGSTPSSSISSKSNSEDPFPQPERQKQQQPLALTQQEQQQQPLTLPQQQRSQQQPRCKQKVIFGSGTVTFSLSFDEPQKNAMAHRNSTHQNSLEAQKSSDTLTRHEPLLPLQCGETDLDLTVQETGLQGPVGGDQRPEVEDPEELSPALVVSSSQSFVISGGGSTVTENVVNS
Method in brief: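 HEK293 cells transfected with human CaSR exposed to peptides at eight concentrations in duplicate (top 1 mM or 300 μM, ½-log dilutions) at 37 °C for 1.5 h.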

[4] = Table 5, IP1 production in HEK293 cells expressing human CaSR, eight concentrations in duplicate, read-out: EC50 in CaSR in vitro assay

Row | Histamine response in vivo Fold change from pre-dose levels 5′ post injection 2 mg/kg IV bolus [1] [fold] | Histamine in vitro Fold change of non-treated at 10 uM [2] [fold] | EC50 [3, 4] [nM] | EC50 ([3]; Table 1, IP1 in HEK293 cells expressing human CaSR, read-out: In vitro EC50) [nM] | Compound
1 | 1.0 | 1.4 | 1600 | – | CC(=O)N[C@H](CS)C(=O)N[C@H](C)C(=O)N[C@H](CCCNC(=N)N)C(=O)N[C@H](CCCNC(=N)N)C(=O)N[C@H](CCCNC(=N)N)C(=O)N[C@H](C)C(=O)N[C@H](CCCNC(=N)N)C(N)=O [SEQ ID NO: 26, Ac-carrrar-NH2]
2 | 2.7 | 11.5 | 500 | 500 | CC(=O)N[C@H](CS)C(=O)N[C@H](CCCNC(=N)N)C(=O)N[C@H](CCCNC(=N)N)C(=O)N[C@H](CCCNC(=N)N)C(=O)N[C@H](CCCNC(=N)N)C(=O)N[C@H](CCCNC(=N)N)C(=O)N[C@H](CCCNC(=N)N)C(N)=O [SEQ ID NO: 6, Ac-crrrrrr-NH2]
